According to PubChem BioAssay (NCI):
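48-hour exposure; five concentrations; linearly interpolated endpoints. The concentration for 50% growth inhibition is given as GI50. Definition used: TGI = concentration required for complete inhibition of growth.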

Legend:
Assay in all cases: DTP human tumour cell line panel, 48 h
[1] = system: A549 NSCLC
[2] = system: ACHN renal
[3] = system: CAKI-1 renal
[4] = system: CCRF-CEM leukemia
[5] = system: DU-145 prostate
[6] = system: HCC-2998 colon
[7] = system: HCT-15 colon
[8] = system: HOP-92 NSCLC
[9] = system: KM12 colon
[10] = system: MDA-MB-435
[11] = system: MOLT-4 leukemia
[12] = system: NCI-H226 lung
[13] = system: NCI-H460 lung
[14] = system: NCI/ADR-RES ovarian
[15] = system: OVCAR-8 ovarian
[16] = system: PC-3 prostate
[17] = system: RXF 393 renal
[18] = system: SK-MEL-2 melanoma
[19] = system: SR leukemia
[20] = system: SW-620 colon
[21] = system: TK-10 renal
[22] = system: U251 CNS
[23] = system: UO-31 renal
[24] = system: 786-0 renal
[25] = system: A498 renal
[26] = system: BT-549 breast
[27] = system: COLO 205 colon
[28] = system: EKVX NSCLC
[29] = system: HCT-116 colon
[30] = system: HL-60(TB) leukemia
[31] = system: HOP-62 NSCLC
[32] = system: HT29 colon
[33] = system: IGROV1 ovarian
[34] = system: K-562 leukemia
[35] = system: LOX IMVI melanoma
[36] = system: M14 melanoma
[37] = system: MCF7 breast
[38] = system: MDA-MB-231 breast
[39] = system: NCI-H23 lung
[40] = system: NCI-H522 lung
[41] = system: OVCAR-3 ovarian
[42] = system: OVCAR-4 ovarian
[43] = system: OVCAR-5 ovarian
[44] = system: RPMI-8226 leukemia
[45] = system: SF-268 CNS
[46] = system: SF-295 CNS
[47] = system: SF-539 CNS
[48] = system: SK-MEL-28 melanoma
[49] = system: SK-MEL-5 melanoma
[50] = system: SK-OV-3 ovarian
[51] = system: SN12C renal
[52] = system: SNB-75 CNS
[53] = system: T-47D breast
[54] = system: UACC-257 melanoma
[55] = system: UACC-62 melanoma
[56] = system: HS 578T breast
[57] = system: MALME-3M melanoma
[58] = system: SNB-19 CNS

Work on `C(=C\c1ccc(-c2cn3cc(/C=C/C=N/NC4=NCCN4)ccc3n2)cc1)/C=N/NC1=NCCN1` yielded a TGI [1] of 1.98 µM, a TGI [2] of 3.01 µM and a TGI [3] of 5.61 µM. For the same molecule, the TGI [4] was 4.18 µM, the TGI [5] was 5.44 µM and the TGI [6] was 2.6 µM. The TGI [7] was > 100 µM, the TGI [8] was 2.51 µM and the TGI [9] was 4.89 µM. The TGI [10] was 3.54 µM, the TGI [11] was 5.22 µM and the TGI [12] was 3.27 µM. For the same molecule, the TGI [13] was 1.92 µM, the TGI [14] was > 44.9 µM and the TGI [15] was 2.67 µM. For the same molecule, the TGI [16] was 3.97 µM, the TGI [17] was 4.79 µM and the TGI [18] was 4.51 µM. The TGI [19] was 3.54 µM, the TGI [20] was 0.77 µM and the TGI [21] was 65.4 µM. It also gave a TGI [22] of 2.26 µM and a TGI [23] of 19.8 µM.

In the case of `O=c1c2ncn(C3CCCO3)c2n(-c2ccccc2)c(=S)n1-c1ccccc1` (centres undefined), the TGI [24] is reported as > 100 µM, the TGI [25] is reported as > 100 µM and the TGI [1] is reported as > 100 µM. The TGI [2] was > 100 µM, the TGI [26] was > 100 µM and the TGI [3] was > 100 µM. The TGI [4] was > 100 µM, the TGI [27] was > 100 µM and the TGI [5] was > 100 µM. For the same molecule, the TGI [28] was > 100 µM, the TGI [6] was > 100 µM and the TGI [29] was > 100 µM. The TGI [7] was > 100 µM, the TGI [30] was > 100 µM and the TGI [31] was > 100 µM. The TGI [32] was > 100 µM, the TGI [33] was > 100 µM and the TGI [34] was > 100 µM. The TGI [9] was > 100 µM, the TGI [35] was > 100 µM and the TGI [36] was > 100 µM. The TGI [37] was > 100 µM, the TGI [38] was > 100 µM and the TGI [10] was > 100 µM. The TGI [11] was > 100 µM, the TGI [12] was > 100 µM and the TGI [39] was > 100 µM. For the same molecule, the TGI [13] was > 100 µM, the TGI [40] was > 100 µM and the TGI [14] was > 100 µM. For the same molecule, the TGI [41] was > 100 µM, the TGI [42] was > 100 µM and the TGI [43] was > 100 µM. For the same molecule, the TGI [15] was > 100 µM, the TGI [16] was > 100 µM and the TGI [44] was > 100 µM. For the same molecule, the TGI [17] was > 100 µM, the TGI [45] was > 100 µM and the TGI [46] was > 100 µM. The TGI [47] was > 100 µM, the TGI [18] was > 100 µM and the TGI [48] was > 100 µM. For the same molecule, the TGI [49] was > 100 µM, the TGI [50] was > 100 µM and the TGI [51] was > 100 µM. For the same molecule, the TGI [52] was > 100 µM, the TGI [19] was > 100 µM and the TGI [20] was > 100 µM. The TGI [53] was > 100 µM, the TGI [21] was > 100 µM and the TGI [22] was > 100 µM. For the same molecule, the TGI [54] was > 100 µM, the TGI [55] was > 100 µM and the TGI [23] was > 100 µM.

Work on `CCOC(=O)c1c2c(n(Cc3ccccc3)c1C)C(=O)C(=O)c1ccccc1-2` yielded a TGI [24] of 1.49 µM, a GI50 [25] of 2.84 µM and a TGI [25] of 5.67 µM. It also gave a TGI [1] of 1.35 µM, a TGI [2] of 1.92 µM and a TGI [3] of 0.984 µM. The TGI [27] was 1.69 µM, the TGI [5] was 0.972 µM and the TGI [28] was 1.74 µM. It also gave a TGI [6] of 1.17 µM, a TGI [29] of 0.692 µM and a TGI [7] of 2.58 µM. It also gave a TGI [30] of 0.0983 µM, a TGI [31] of 0.536 µM and a TGI [8] of 3.17 µM. The TGI [56] was 2.19 µM, the TGI [33] was > 100 µM and the TGI [34] was > 100 µM. For the same molecule, the TGI [9] was 3.02 µM, the TGI [35] was 0.482 µM and the TGI [36] was 0.966 µM. It also gave a TGI [57] of 0.191 µM, a TGI [38] of 1.99 µM and a TGI [10] of 0.112 µM. For the same molecule, the TGI [11] was 1.8 µM, the TGI [12] was 1.22 µM and the TGI [39] was 1.07 µM. For the same molecule, the TGI [13] was 1.5 µM, the TGI [14] was > 100 µM and the TGI [41] was 0.167 µM. The TGI [15] was 1.07 µM, the TGI [16] was 5.14 µM and the TGI [44] was 0.83 µM. For the same molecule, the TGI [45] was 1.27 µM, the TGI [46] was 0.984 µM and the TGI [47] was 0.521 µM. The TGI [48] was 0.601 µM, the TGI [49] was 0.742 µM and the TGI [50] was 5.76 µM. The TGI [51] was 0.333 µM, the TGI [52] was 2.69 µM and the TGI [20] was 1.15 µM. The TGI [53] was 2.19 µM, the TGI [21] was 1.18 µM and the TGI [22] was 2.03 µM. For the same molecule, the TGI [54] was 0.285 µM, the TGI [55] was 1.65 µM and the TGI [23] was > 100 µM.

`NCCCn1c2c(c3ccc([N+](=O)[O-])cc3c1=O)C(=O)c1ccccc1-2` was tested, and the GI50 [25] was 0.277 µM, the TGI [25] was 1.45 µM and the GI50 [1] was 0.0233 µM. It also gave a GI50 [2] of 0.0198 µM, a TGI [2] of 0.0885 µM and a GI50 [26] of 0.235 µM. It also gave a TGI [26] of 0.881 µM, a GI50 [3] of 0.0276 µM and a TGI [3] of 0.494 µM. The GI50 [4] was 0.135 µM, the TGI [4] was > 50 µM and the GI50 [27] was 0.33 µM. For the same molecule, the TGI [27] was 3.82 µM, the GI50 [5] was 0.0455 µM and the TGI [5] was 0.474 µM. It also gave a GI50 [28] of 0.317 µM, a TGI [28] of 1.69 µM and a GI50 [29] of 0.0205 µM. It also gave a GI50 [7] of 0.029 µM, a TGI [7] of 0.81 µM and a GI50 [30] of 0.031 µM. For the same molecule, the TGI [30] was > 19.3 µM, the GI50 [8] was 0.34 µM and the TGI [8] was 1.72 µM. The GI50 [56] was 0.657 µM, the TGI [56] was 2.29 µM and the GI50 [32] was 0.0785 µM. The TGI [32] was 1.14 µM, the GI50 [33] was 0.215 µM and the TGI [33] was > 50 µM. For the same molecule, the GI50 [34] was 0.0335 µM, the GI50 [9] was 0.0892 µM and the TGI [9] was 1.23 µM. The GI50 [35] was 0.0173 µM, the TGI [35] was 0.225 µM and the GI50 [36] was 0.161 µM. For the same molecule, the TGI [36] was 1.06 µM, the GI50 [37] was 0.0122 µM and the TGI [37] was > 50 µM. The GI50 [38] was 0.136 µM, the TGI [38] was 0.472 µM and the GI50 [10] was 0.322 µM. The TGI [10] was 2.08 µM, the GI50 [11] was 0.114 µM and the TGI [11] was > 50 µM. For the same molecule, the GI50 [12] was 0.0151 µM, the TGI [12] was 0.118 µM and the GI50 [39] was 0.078 µM. For the same molecule, the TGI [39] was 2.42 µM, the GI50 [13] was 0.00887 µM and the TGI [13] was > 50 µM. The GI50 [40] was 0.462 µM, the TGI [40] was > 50 µM and the GI50 [14] was 0.427 µM. For the same molecule, the TGI [14] was 2.41 µM, the GI50 [41] was 0.0966 µM and the TGI [41] was 0.525 µM. The GI50 [42] was 0.116 µM, the TGI [42] was 0.47 µM and the GI50 [43] was 0.414 µM. It also gave a TGI [43] of 1.3 µM, a GI50 [15] of 0.114 µM and a TGI [15] of 0.77 µM. It also gave a GI50 [16] of 0.326 µM, a TGI [16] of 3.61 µM and a GI50 [44] of 0.0284 µM. The GI50 [17] was 0.709 µM, the TGI [17] was 2.1 µM and the GI50 [45] was 0.24 µM. For the same molecule, the TGI [45] was > 12.2 µM, the GI50 [47] was 0.138 µM and the TGI [47] was 0.596 µM. For the same molecule, the GI50 [18] was 1.6 µM, the TGI [18] was > 50 µM and the GI50 [48] was 0.497 µM. It also gave a GI50 [49] of 0.0956 µM, a TGI [49] of 0.479 µM and a GI50 [50] of 0.631 µM. For the same molecule, the TGI [50] was 2.28 µM, the GI50 [51] was 0.0297 µM and the TGI [51] was 0.16 µM. For the same molecule, the GI50 [58] was 0.0721 µM, the TGI [58] was 7.05 µM and the GI50 [52] was 0.835 µM. For the same molecule, the TGI [52] was 2.67 µM, the GI50 [19] was 0.005 µM and the TGI [19] was > 50 µM. It also gave a GI50 [20] of 0.0215 µM, a TGI [20] of 1.24 µM and a GI50 [21] of 0.212 µM. It also gave a TGI [21] of 1.83 µM, a GI50 [22] of 0.005 µM and a TGI [22] of 0.0534 µM. The GI50 [54] was 0.495 µM, the TGI [54] was > 16.6 µM and the GI50 [55] was 0.102 µM. For the same molecule, the TGI [55] was 0.431 µM, the GI50 [23] was 0.11 µM and the TGI [23] was > 50 µM.
